Experimental data taken from US7115640B2, “Heterocyclic modulators of nuclear receptors” (X-Ceptor Therapeutics, Inc., priority 2001, dated 2006).
pEC50, pIC50: −log10 of the molar value. Read-outs that look alike come from different tables or passages of the source.

Legend:
[1] = target: T1, FXR (CMX-hFXR with CMX-RXRα in CV-1 cells) (Homo sapiens, UniProt Q96RI1); test: FXR/ECREx7 co-transfection assay (luciferase reporter); type: cell-based; details: for pEC50: FXR agonism
T1 construct: expressed in transfected cells; host or cells: CV-1 African Green Monkey Kidney cells
T1 sequence (Q96RI1 1-472 isoform Q96RI1-2): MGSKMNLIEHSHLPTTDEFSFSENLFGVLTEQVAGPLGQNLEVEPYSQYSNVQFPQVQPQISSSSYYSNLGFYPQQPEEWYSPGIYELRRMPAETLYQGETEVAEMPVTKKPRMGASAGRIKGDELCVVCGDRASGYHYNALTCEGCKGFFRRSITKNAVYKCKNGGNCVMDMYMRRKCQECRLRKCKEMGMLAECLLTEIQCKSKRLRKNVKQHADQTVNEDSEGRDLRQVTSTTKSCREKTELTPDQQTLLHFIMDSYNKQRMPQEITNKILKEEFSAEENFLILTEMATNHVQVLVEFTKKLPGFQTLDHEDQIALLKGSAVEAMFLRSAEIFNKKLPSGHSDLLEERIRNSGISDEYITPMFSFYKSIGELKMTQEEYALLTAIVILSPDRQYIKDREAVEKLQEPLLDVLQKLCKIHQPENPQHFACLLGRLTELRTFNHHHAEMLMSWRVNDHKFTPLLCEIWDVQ
T1 sequence (P19793 1-462 partner): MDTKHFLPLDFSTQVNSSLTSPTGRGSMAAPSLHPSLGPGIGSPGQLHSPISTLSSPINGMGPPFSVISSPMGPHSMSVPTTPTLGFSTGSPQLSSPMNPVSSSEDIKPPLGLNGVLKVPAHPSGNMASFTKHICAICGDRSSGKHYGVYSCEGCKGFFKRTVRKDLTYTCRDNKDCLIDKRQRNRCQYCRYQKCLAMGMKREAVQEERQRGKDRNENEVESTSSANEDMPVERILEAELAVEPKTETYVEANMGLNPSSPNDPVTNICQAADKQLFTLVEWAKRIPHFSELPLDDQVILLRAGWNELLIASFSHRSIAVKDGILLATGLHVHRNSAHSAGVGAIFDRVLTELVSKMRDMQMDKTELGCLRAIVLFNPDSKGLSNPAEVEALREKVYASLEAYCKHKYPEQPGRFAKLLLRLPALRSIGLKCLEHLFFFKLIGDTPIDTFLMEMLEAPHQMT
Procedure: The basic co-transfection protocol for measuring FXR activity is as follows. CV-1 African Green Monkey Kidney cells are plated 24 hours before transfection to achieve approximately 70–80 percent confluency. Cells are transfected with CMX-hFXR, CMX-RXRα, Luc12 reporter (ECREx7-Tk-Luciferase), and a CMX-β-Galactosidase expression vector. The transfection reagent used is DOTAP. Cells are incubated with the DOTAP/DNA mixture for 5 hours after which the cells are harvested and plated onto either 96 well or 384 well plates containing the appropriate concentration of test compound. The assay is allowed to continue for an additional 18–20 hours, after which the cells are lysed, and the luciferase activity is measured on a standard plate reader.
(§1) Both the FXR/ECREx7 co-transfection assay (Example 54) and the TR-FRET assay (Example 53) can be used to establish the EC50/IC50 values for potency and percent activity or inhibition for efficacy. Efficacy defines the activity of a compound relative to a high control (chenodeoxycholic acid, CDCA) or a low control (DMSO/vehicle). The dose response curves are generated from an 8 point curve with concentrations differing by ½ LOG units. Each point represents the average of 4 wells of data from a 384 well plate. The curve for the data is generated by using the equation: Y=Bottom+(Top−Bottom)/(1+10^((LogEC50−X)*HillSlope))
(§2) The EC50/IC50 is therefore defined as the concentration at which an agonist or antagonist elicits a response that is half way between the Top (maximum) and Bottom (baseline) values. The EC50/IC50 values represented are the averages of at least 3 independent experiments. The determination of the relative efficacy or % control for an agonist is by comparison to the maximum response achieved by chenodeoxycholic acid that is measured individually in each dose response experiment.
For the antagonist assay, 40 μM CDCA is added to each well of a 384 well plate to elicit a response. The % inhibition for each antagonist is therefore a measurement of the inhibition of the activity of 40 μM CDCA. In this example 100% inhibition would indicate that the activity of 40 μM CDCA has been reduced to baseline levels, defined as the activity of the assay in the presence of DMSO only.

GST-FXR-LBD = target: T2, GST-FXR-LBD (Homo sapiens, UniProt Q96RI1); test: Time resolved fluorescence resonance energy transfer (TR-FRET) coactivator recruitment assay; type: biochemical
T2 sequence (Q96RI1 244-472 isoform Q96RI1-2): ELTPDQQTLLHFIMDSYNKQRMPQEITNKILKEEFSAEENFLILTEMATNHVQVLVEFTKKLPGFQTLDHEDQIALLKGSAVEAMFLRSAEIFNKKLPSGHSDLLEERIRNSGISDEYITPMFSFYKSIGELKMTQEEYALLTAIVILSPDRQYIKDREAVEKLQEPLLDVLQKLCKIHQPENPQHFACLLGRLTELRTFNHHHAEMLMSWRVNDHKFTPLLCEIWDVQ
Procedure: The FRET assay was performed by incubating 8 nM of GST-FXR-LBD, 8 nM of Europium-labeled anti-GST antibody (Wallac), 16 nM biotin-SRC-1 peptide [5′-biotin-[…]-CONH2], 20 nM APC-SA [allophycocyanin conjugated streptavidin] (Wallac) in FRET assay buffer (20 mM KH2PO4/K2HPO4 (pH 7.3), 150 mM NaCl, 2 mM CHAPS, 2 mM EDTA, 1 mM DTT) in the presence of the test compound(s) for 2–4 hours at room temperature. Data was collected using an LJL Analyst with readings at 615 nm and 665 nm.
as §1, with “The curve for the data is generated by using the equation: Y=Bottom+(Top−Bottom)/(1+10^((LogEC50−X)*HillSlope))” left out
as §2, with “The EC50/IC50 values represented are the averages of at least 3 independent experiments.” left out, “experiment. […]” for “experiment.”

## CCNc1ccc(C#N)cc1N=C1SC(=C2Sc3ccccc3N2C)C(=O)N1Cc1ccccc1 [Example 32, 3-[3-benzyl-5-(3-methyl-3H-benzothiazol-2-ylidene)-4-oxothiazolidin-2-ylideneamino]-4-(ethylamino)benzonitrile]
[1]; CV-1, relative to maximum response of chenodeoxycholic acid (CDCA), co-transfection assay, read-out: % efficacy
  Emax: ~150%
[1]; co-transfection assay
  pEC50: ~8.00

## CCNc1ccc(C#N)cc1N=C1SC(=C2SC(C)=C(c3ccccc3)N2C)C(=O)N1Cc1ccccc1 [Example 52, 3-(3′-benzyl-3,5-dimethyl-4′-oxo-4-phenyl-3′,4′-dihydro-3H-[2,5′]-bithiazolyliden-2′-ylideneamino)-4-(ethylamino)benzonitrile]
GST-FXR-LBD; FXR antagonism
  pIC50: ~7.38
GST-FXR-LBD; inhibition of the activity of 40 μM CDCA
  % inhibition: about 48%
[1]; CV-1, read-out: % efficacy
  Emax: ~32%
[1]; co-transfection assay
  pEC50: ~7.25
